Assays:
Mus musculus [1] = assay: In vivo antitumor activity against murine sarcoma 180 cells at an optimal dose of 8 mg/kg.; type: functional
HeLa = assay: In vitro antiproliferative activity against HeLa S3 cells.; type: functional, cell-based; conditions: Homo sapiens
Mus musculus [2] = assay: In vivo antitumor activity against lymphocytic leukemia P388 in mice expressed as maximal increase in life span at an optimal dose of 8 mg/kg.; type: functional
Mus musculus [3] = assay: In vivo antitumor activity against murine sarcoma 180 cells at an optimal dose of 4 mg/kg.; type: functional
Mus musculus [4] = assay: In vivo antitumor activity against murine sarcoma 180 cells at an optimal dose of 16 mg/kg.; type: functional
Mus musculus [5] = assay: In vivo antitumor activity against lymphocytic leukemia P388 in mice expressed as maximal increase in life span at an optimal dose of 4 mg/kg.; type: functional

Compound	T/C (Mus musculus [1])	IC50 (HeLa) [nM]	ILS at 8 mg/kg (Mus musculus [2]) [%]	T/C (Mus musculus [3])	T/C (Mus musculus [4])	ILS at 4 mg/kg (Mus musculus [5]) [%]
C/C1=C\[C@@H](OC(=O)CNC(=O)[C@H](NC(=O)OCc2ccccc2)C(C)C)C(=O)/C=C/C=C\c2csc(n2)[C@H](C)NC(=O)C[C@@]2(CC1)[S+]([O-])SC(=O)[C@]2(C)O (stereo not given in full)	0.56	16	67			
COCCOCC(=O)OCCOCCOCC(=O)O[C@@H]1/C=C(\C)CC[C@]2(CC(=O)N[C@@H](C)c3nc(cs3)/C=C\C=C\C1=O)[S+]([O-])SC(=O)[C@]2(C)O (stereo not given in full)	0.12					
COCCOCCOCCOCCOCCOCCOCC(=O)O[C@@H]1/C=C(\C)CC[C@]2(CC(=O)N[C@@H](C)c3nc(cs3)/C=C\C=C\C1=O)[S+]([O-])SC(=O)[C@]2(C)O (stereo not given in full)		210				
COCCOCCOCC(=O)O[C@@H]1/C=C(\C)CC[C@]2(CC(=O)N[C@@H](C)c3nc(cs3)/C=C\C=C\C1=O)[S+]([O-])SC(=O)[C@]2(C)O (stereo not given in full)		66		0.3		
C/C1=C\[C@@H](OC(=O)CNC(=O)OCc2ccccc2)C(=O)/C=C/C=C/c2csc(n2)[C@@H](C)N2C(=O)C[C@@]([C@@](C)(O)C(=O)SCc3oc(=O)oc3C)(CC1)[S+]2[O-] (stereo not given in full)		4	98		0.36	
C/C1=C\[C@@H](OC(=O)CNC(=O)CCNC(=O)OC(C)(C)C)C(=O)/C=C/C=C\c2csc(n2)[C@H](C)NC(=O)C[C@@]2(CC1)[S+]([O-])SC(=O)[C@]2(C)O (stereo not given in full)	0.45	170	67			
C/C1=C\[C@@H](OC(=O)CCNC(=O)OCc2ccccc2)C(=O)/C=C/C=C\c2csc(n2)[C@H](C)NC(=O)C[C@@]2(CC1)[S+]([O-])SC(=O)[C@]2(C)O (stereo not given in full)		40		0.79		53
COCCOCCOCCOCCOCC(=O)O[C@@H]1/C=C(\C)CC[C@]2(CC(=O)N[C@@H](C)c3nc(cs3)/C=C\C=C\C1=O)[S+]([O-])SC(=O)[C@]2(C)O (stereo not given in full)	0.51	240				
C/C1=C\[C@@H](OC(=O)CNC(=O)CNC(=O)OCc2ccccc2)C(=O)/C=C/C=C/c2csc(n2)[C@@H](C)N2C(=O)C[C@@]([C@@](C)(O)C(=O)SCc3oc(=O)oc3C)(CC1)[S+]2[O-] (stereo not given in full)		15	64	0.61		
C/C1=C\[C@@H](OC(=O)CNC(=O)CNC(=O)c2ccccc2)C(=O)/C=C/C=C\c2csc(n2)[C@H](C)NC(=O)C[C@@]2(CC1)[S+]([O-])SC(=O)[C@]2(C)O (stereo not given in full)	0.42	8.7	78			
COCCOCCOCCOCC(=O)O[C@@H]1/C=C(\C)CC[C@]2(CC(=O)N[C@@H](C)c3nc(cs3)/C=C\C=C\C1=O)[S+]([O-])SC(=O)[C@]2(C)O (stereo not given in full)		610		0.82		
COCCOCCOCCOCCOCCOCC(=O)O[C@@H]1/C=C(\C)CC[C@]2([C@@](C)(O)C(=O)SCc3oc(=O)oc3C)CC(=O)N([C@H](C)c3nc(cs3)/C=C/C=C/C1=O)[S+]2[O-] (stereo not given in full)	0.58	43				
C/C1=C\[C@@H](OC(=O)CNC(=O)CN(C)C(=O)OCc2ccccc2)C(=O)/C=C/C=C\c2csc(n2)[C@H](C)NC(=O)C[C@@]2(CC1)[S+]([O-])SC(=O)[C@]2(C)O (stereo not given in full)	0.61	67				70
C/C1=C\[C@@H](OC(=O)COCCOCCO)C(=O)/C=C/C=C\c2csc(n2)[C@H](C)NC(=O)C[C@@]2(CC1)[S+]([O-])SC(=O)[C@]2(C)O (stereo not given in full)		25		0.36		
C/C1=C\[C@@H](OC(=O)[C@@H](C)NC(=O)OCc2ccccc2)C(=O)/C=C/C=C\c2csc(n2)[C@H](C)NC(=O)C[C@@]2(CC1)[S+]([O-])SC(=O)[C@]2(C)O (stereo not given in full)		45		0.56		52
C/C1=C\[C@@H](OC(=O)CN(C)C(=O)OCc2ccccc2)C(=O)/C=C/C=C\c2csc(n2)[C@H](C)NC(=O)C[C@@]2(CC1)[S+]([O-])SC(=O)[C@]2(C)O (stereo not given in full)	0.74	52				48
C/C1=C\[C@@H](OC(=O)COCCOCCOCCOCCO)C(=O)/C=C/C=C\c2csc(n2)[C@H](C)NC(=O)C[C@@]2(CC1)[S+]([O-])SC(=O)[C@]2(C)O (stereo not given in full)	0.18					

— ChEMBL document CHEMBL1145735, “Synthesis and antitumor activity of novel C-8 ester derivatives of leinamycin” (Bioorg Med Chem Lett, 2003)
